Series [1] concerns the target T1, NLRP3 (Homo sapiens (Human), UniProt Q96P20). The experiment in a line: THP-1 cells pyroptosis assay (LPS + nigericin, resazurin read-out). The format is cell-based. To be noted: 1 μg/ml LPS, 5 μM nigericin. In a few lines: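 LPS-primed (1 μg/ml) human THP-1 cells in serum-free RPMI were exposed to compound (8-point half-log series, top dose as printed "10M") for 3 h at 37 °C, then to nigericin 5 μM for 1 h. Remaining viability was read by resazurin (100 μM, 1-2 h) fluorescence, and IC50 came from 4-parameter variable-slope regression.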
In general terms: The colour change of resazurin is a common sign of viable cells or microbes.

The target in series [2] is T1, NLRP3. Description: Human whole blood IL1β release assay (LPS + nigericin). Type of series: cell-based. To be noted: human whole blood, 1 μg/ml LPS, nigericin, IL-1β release; read-out: HWB IC50. In a few lines:
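Healthy-donor heparinized whole blood with 1 μg/ml LPS preincubated 3 h at 37 °C with compound (8-point half-log, top 10 μM, 0.1% DMSO), then nigericin 1 h. Supernatant IL-1β by AlphaLISA; IC50 from 4-parameter variable-slope fit.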

A short description of series [3]: PK, intravenous administration. Type of series: in vivo, male Sprague Dawley rats. The following applies: male, Sprague Dawley, plasma, rat, intravenous; for AUC: read-out: AUC; for clearance: read-out: Cl; for half-life: read-out: T1/2 (converted); for Vd: read-out: Vdss. The protocol: (§1) Pharmacokinetic parameters were determined in male Sprague Dawley rats (Charles River, UK, 250-300 g; or Vital River Laboratory Animal Technology Co Ltd, Beijing, China, 7-9 weeks old). Animals were individually housed during the study and maintained under a 12 h light/dark cycle. Animals had free access to food and water except that orally dosed animals were food deprived overnight prior to the study. For intravenous administration, compounds were formulated as a solution in water or DMSO:PBS [10:90] in 2 mL/kg dosing volume and administered via tail vein. For oral administration, compounds were formulated as a solution in water or DMSO:water [10:90] in 5 mL/kg dosing volume and administered orally. Serial blood samples (about 120-300 μL) were taken from each animal at each of 8 time-points post dose (0.083, 0.25, 0.5, 1, 2, 4, 8 and 24 h). Samples were held on ice for no longer than 30 minutes before centrifugation (10,000 rpm (8,385 g) for 3 minutes; or 5,696 rpm (3,000 g) for 15 minutes) for plasma generation. Plasma was frozen on dry ice prior to bioanalysis. PK parameters were generated from LC-MS/MS data using Dotmatics or Phoenix WinNonlin 6.3 software.

The nature of another series: PK, oral administration. The following applies: male, Sprague Dawley, plasma, rat, dose 3 mg/kg. Type of series: in vivo, male Sprague Dawley rats. The procedure: as §1

Counter-ions that a name gives are not always drawn. Like-named read-outs stand apart in the source and are kept apart here. Where only a bound is given, the exact number is not on record here.

We go through eleven compounds from US20250115591A1, “NOVEL SULFONAMIDE CARBOXAMIDE COMPOUNDS” (INFLAZOME LIMITED, priority 2017, published 2025).

T1 sequence (Q96P20 whole entry): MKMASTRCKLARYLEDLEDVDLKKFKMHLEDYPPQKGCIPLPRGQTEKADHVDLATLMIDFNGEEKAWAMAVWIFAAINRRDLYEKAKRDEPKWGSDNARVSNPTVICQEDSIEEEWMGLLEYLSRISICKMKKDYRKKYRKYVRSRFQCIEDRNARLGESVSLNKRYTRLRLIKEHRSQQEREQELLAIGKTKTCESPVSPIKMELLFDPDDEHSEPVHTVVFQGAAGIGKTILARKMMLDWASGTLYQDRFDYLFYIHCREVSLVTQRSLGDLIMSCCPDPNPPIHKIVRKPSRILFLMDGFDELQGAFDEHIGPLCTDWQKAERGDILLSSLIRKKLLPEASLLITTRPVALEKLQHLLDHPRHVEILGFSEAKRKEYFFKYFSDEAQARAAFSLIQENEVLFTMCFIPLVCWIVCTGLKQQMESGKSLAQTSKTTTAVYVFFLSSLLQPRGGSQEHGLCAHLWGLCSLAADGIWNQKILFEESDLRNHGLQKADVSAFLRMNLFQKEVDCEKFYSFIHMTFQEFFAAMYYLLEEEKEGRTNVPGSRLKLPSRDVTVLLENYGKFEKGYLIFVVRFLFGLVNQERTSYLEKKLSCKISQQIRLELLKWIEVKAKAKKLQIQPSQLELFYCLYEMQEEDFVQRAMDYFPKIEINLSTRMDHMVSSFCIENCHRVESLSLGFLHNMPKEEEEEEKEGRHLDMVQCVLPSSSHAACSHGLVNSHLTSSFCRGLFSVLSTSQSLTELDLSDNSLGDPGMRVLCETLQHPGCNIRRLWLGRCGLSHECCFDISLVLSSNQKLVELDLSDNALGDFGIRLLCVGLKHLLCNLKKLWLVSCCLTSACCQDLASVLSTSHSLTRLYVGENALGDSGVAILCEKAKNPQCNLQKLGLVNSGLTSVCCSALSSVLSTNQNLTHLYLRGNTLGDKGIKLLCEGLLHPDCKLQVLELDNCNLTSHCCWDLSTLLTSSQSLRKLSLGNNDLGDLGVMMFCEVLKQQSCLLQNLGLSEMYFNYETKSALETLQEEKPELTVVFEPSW

On to `CN1CCC(S(=O)(=O)NC(=O)Nc2c3c(cc4c2CCC4)CCC3)CC1` [Example 1, N-((1,2,3,5,6,7-Hexahydro-s-indacen-4-yl)carbamoyl)-1-methylpiperidine-4-sulfonamide, potassium salt], for which the IC50 (as a rule, the concentration that gives 50% inhibition) on NLRP3 [1] is 1000 to 10000 nM. Besides, the IC50 on NLRP3 [2] was 1000 to 10000 nM. In addition, in series [3] (dose 1 mg/kg), the AUC (commonly the area under the concentration-time curve, a measure of exposure) worked out at 1950 ng·h/mL; the clearance came to 8.5 mL/min/kg; the half-life is 1.2 h; the Vd was 0.58 L/kg.

`CCN1CCC(S(=O)(=O)NC(=O)Nc2c3c(cc4c2CCC4)CCC3)CC1` [Example 6, 1-Ethyl-N-((1,2,3,5,6,7-hexahydro-s-indacen-4-yl)carbamoyl)piperidine-4-sulfonamide, potassium salt]: on NLRP3 [1], the IC50 is under 1000 nM. Moreover, at NLRP3 [2], the IC50 was under 1000 nM. Besides, in series [3] (dose 1 mg/kg), the AUC was found to be 2340 ng·h/mL, the clearance amounted to 7.2 mL/min/kg, the half-life was 2.7 h and the Vd stood at 0.61 L/kg. Also, in “PK, oral administration”, the AUC stood at 5400 ng·h/mL; the Cmax – broadly, the peak of the concentration-time curve – is 1770 ng/mL; the time of peak concentration (Tmax) (in general, the time at which the peak concentration occurs) was 0.5 h; the half-life is 2.7 h.

Regarding `CCN1CCCC(S(=O)(=O)NC(=O)Nc2c3c(cc4c2CCC4)CCC3)C1` (stereo not shown) [Example 9, 1-Ethyl-N-((1,2,3,5,6,7-hexahydro-s-indacen-4-yl)carbamoyl)-piperidine-3-sulfonamide, potassium salt], the IC50 at NLRP3 [1] was under 1000 nM. Besides, the IC50 at NLRP3 [2] is under 1000 nM. In series [3] (dose 1 mg/kg), the AUC turned out to be 2670 ng·h/mL, the clearance was determined as 6.5 mL/min/kg, the half-life is 3.9 h and the Vd amounted to 0.63 L/kg.

On to `CC(C)N1CCCC(S(=O)(=O)NC(=O)Nc2c3c(cc4c2CCC4)CCC3)C1` (stereo not shown) [Example 31, N-((1,2,3,5,6,7-Hexahydro-s-indacen-4-yl)carbamoyl)-1-iso-propyl-piperidine-3-sulfonamide, potassium salt], for which the IC50 on NLRP3 [1] was under 1000 nM. The IC50 on NLRP3 [2] was under 1000 nM. Further, in series [3] (dose 1 mg/kg), the area under the curve (AUC) was 2750 ng·h/mL, the clearance amounted to 6.1 mL/min/kg, the half-life was 4.5 h and the Vd came to 0.47 L/kg.

`CC(C)N1CCC(S(=O)(=O)NC(=O)Nc2c3c(cc4c2CCC4)CCC3)C1` (stereo not shown) [Example 41, N-((1,2,3,5,6,7-Hexahydro-s-indacen-4-yl)carbamoyl)-1-iso-propylpyrrolidine-3-sulfonamide, potassium salt]: at NLRP3 [1], the IC50 was under 1000 nM. In addition, the half-inhibitory concentration (IC50) on NLRP3 [2] was under 1000 nM. Besides, in series [3] (dose 1 mg/kg), the AUC was 1850 ng·h/mL, the clearance came to 9.1 mL/min/kg, the half-life is 2.9 h and the Vd came out at 0.78 L/kg.

On to `CC(C)N1CC(S(=O)(=O)NC(=O)Nc2c3c(cc4c2CCC4)CCC3)C1` [Example 46, N-((1,2,3,5,6,7-Hexahydro-s-indacen-4-yl)carbamoyl)-1-iso-propylazetidine-3-sulfonamide, potassium salt], for which the IC50 on NLRP3 [1] is under 1000 nM. For the same compound, the IC50 on NLRP3 [2] is under 1000 nM. Also, in series [3] (dose 1 mg/kg), the AUC was 2080 ng·h/mL, the clearance worked out at 8.2 mL/min/kg, the half-life is 1.2 h and the Vd stood at 0.45 L/kg. In the series “PK, oral administration”, the AUC came out at 3510 ng·h/mL, the Cmax came out at 1330 ng/mL, the Tmax was determined as 0.67 h and the half-life was 1.4 h.

Turning to `CCCN1CC(S(=O)(=O)NC(=O)Nc2c3c(cc4c2CCC4)CCC3)C1` [Example 76, N-((1,2,3,5,6,7-Hexahydro-s-indacen-4-yl)carbamoyl)-1-propylazetidine-3-sulfonamide, potassium salt], on NLRP3 [1], the IC50 is under 1000 nM. Also, the IC50 at NLRP3 [2] was under 1000 nM. For the same compound, in series [3] (dose 1 mg/kg), the AUC was determined as 2650 ng·h/mL, the clearance worked out at 6.3 mL/min/kg, the half-life is 1 h and the Vd is 0.25 L/kg.

As for `O=C(Nc1c2c(cc3c1CCC3)CCC2)NS(=O)(=O)C1CN(CC2CC2)C1` [Example 94, 1-(Cyclopropylmethyl)-N-((1,2,3,5,6,7-hexahydro-s-indacen-4-yl)carbamoyl)azetidine-3-sulfonamide, potassium salt], the IC50 at NLRP3 [1] is under 1000 nM. Also, the IC50 at NLRP3 [2] was under 1000 nM. In series [3] (dose 2.09 mg/kg), the AUC was found to be 1410 ng·h/mL, the clearance was found to be 25.2 mL/min/kg, the half-life is 1.1 h and the Vd came to 1.62 L/kg.

As to `O=C(Nc1c2c(cc3c1CCC3)CCC2)NS(=O)(=O)C1CN(C2CSC2)C1` [Example 109, N-((1,2,3,5,6,7-Hexahydro-s-indacen-4-yl)carbamoyl)-1-(thietan-3-yl)azetidine-3-sulfonamide, potassium salt], at NLRP3 [1], the IC50 was under 1000 nM. Moreover, on NLRP3 [2], the IC50 was under 1000 nM. Besides, in series [3] (dose 1 mg/kg), the AUC stood at 1730 ng·h/mL, the clearance came to 9.6 mL/min/kg, the half-life was 1.3 h and the Vd stood at 0.64 L/kg.

In the case of `COc1cc(-c2ccc3c(c2NC(=O)NS(=O)(=O)c2ccc(=O)n(C(C)C)c2)CCC3)ccn1` [Example 153, 1-Isopropyl-N-((5-(2-methoxypyridin-4-yl)-2,3-dihydro-1H-inden-4-yl)carbamoyl)-6-oxo-1,6-dihydropyridine-3-sulfonamide], the IC50 on NLRP3 [1] was under 1000 nM. For the same compound, the IC50 at NLRP3 [2] is under 1000 nM. Also, in series [3] (dose 1 mg/kg), the AUC came to 511 ng·h/mL, the clearance was 32.6 mL/min/kg, the half-life is 1.1 h and the Vd was 1.21 L/kg.

For `CC(C)n1cc(S(=O)(=O)NC(=O)Nc2c3c(cc4c2CCC4)CCC3)ccc1=O` [Example 185, N-((1,2,3,5,6,7-Hexahydro-s-indacen-4-yl)carbamoyl)-1-isopropyl-6-oxo-1,6-dihydropyridine-3-sulfonamide, sodium salt], the IC50 on NLRP3 [1] is under 1000 nM; at NLRP3 [2], 1000 to 10000 nM.
